# Measured values published in ChEMBL document CHEMBL1141784, “Phaeochromycins A-E, anti-inflammatory polyketides isolated from the soil actinomycete Streptomyces phaeochromogenes LL-P018” (J Nat Prod, 2005).
# Target: MAP kinase-activated protein kinase 2 (Homo sapiens, UniProt P49137)
# Experiment: Inhibition of human recombinant MK2 by ELISA
# MAP kinase-activated protein kinase 2, sequence (P49137 whole entry): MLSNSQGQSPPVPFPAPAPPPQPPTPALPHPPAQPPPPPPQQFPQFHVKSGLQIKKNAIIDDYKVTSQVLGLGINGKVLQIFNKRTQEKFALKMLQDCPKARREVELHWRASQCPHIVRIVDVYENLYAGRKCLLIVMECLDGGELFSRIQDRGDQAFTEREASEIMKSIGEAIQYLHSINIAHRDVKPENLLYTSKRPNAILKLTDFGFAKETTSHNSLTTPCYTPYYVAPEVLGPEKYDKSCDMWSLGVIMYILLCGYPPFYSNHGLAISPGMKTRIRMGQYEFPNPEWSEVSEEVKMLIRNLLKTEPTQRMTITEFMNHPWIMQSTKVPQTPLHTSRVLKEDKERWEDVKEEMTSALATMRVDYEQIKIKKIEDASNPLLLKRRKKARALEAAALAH
row,Structure (SMILES),IC50 [µM]
1,CCCc1cc(=O)c2c(Cc3cc(O)cc(=O)o3)cccc2o1 [PHAEOCHROMYCIN C],130
2,CCCc1cc(O)c2c(O)cccc2c1-c1cc(O)cc(=O)o1 [PHAEOCHROMYCINS A],39
